{
  "source": "BindingDB's records for doi:10.1016/j.bmcl.2008.10.099",
  "about": "(Bristol-Myers Squibb, 2008)",
  "data": [
    {"target": "Potassium voltage-gated channel subfamily A member 5 (Homo sapiens, UniProt P22460)", "sequence (P22460 whole entry)": "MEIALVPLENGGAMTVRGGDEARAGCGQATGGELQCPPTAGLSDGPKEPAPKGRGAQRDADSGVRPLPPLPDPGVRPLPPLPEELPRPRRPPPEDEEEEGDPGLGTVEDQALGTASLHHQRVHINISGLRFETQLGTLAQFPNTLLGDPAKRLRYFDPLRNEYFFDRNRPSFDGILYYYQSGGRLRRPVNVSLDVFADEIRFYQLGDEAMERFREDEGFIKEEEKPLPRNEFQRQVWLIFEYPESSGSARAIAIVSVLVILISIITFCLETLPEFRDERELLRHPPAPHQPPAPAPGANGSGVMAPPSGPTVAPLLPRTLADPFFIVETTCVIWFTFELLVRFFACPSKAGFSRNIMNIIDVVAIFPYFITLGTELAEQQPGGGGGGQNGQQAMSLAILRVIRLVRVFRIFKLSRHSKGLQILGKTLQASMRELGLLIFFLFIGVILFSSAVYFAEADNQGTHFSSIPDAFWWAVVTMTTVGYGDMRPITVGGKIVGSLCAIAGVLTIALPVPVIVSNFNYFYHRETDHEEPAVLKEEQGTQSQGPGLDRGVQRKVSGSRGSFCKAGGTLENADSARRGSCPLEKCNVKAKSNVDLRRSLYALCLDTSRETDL", "test": "Inhibition of human Kv1.5 channel expressed in mouse L929 cells by EP voltage clamp technique", "units": {"IC50": "nM"}, "values": [
      {"smiles": "CC1=Nc2ccnn2C(c2cc3ccccc3o2)C1C(=O)N1CCN(c2ccc(F)cc2)CC1", "note": "(stereo unspecified) [(7-(benzofuran-2-yl)-5-methyl-4,7-dihydropyrazolo[1,5-a]pyrimidin-6-yl)(4-(4-fluorophenyl)piperazin-1-yl)methanone]", "IC50": 160},
      {"smiles": "CC1=Nc2ccnn2C(c2sc3ccccc3c2C)C1C(=O)N1CCN(c2ccc(F)cc2)CC1", "note": "(stereo unspecified) [(4-(4-fluorophenyl)piperazin-1-yl)(5-methyl-7-(3-methylbenzo[b]thiophen-2-yl)-4,7-dihydropyrazolo[1,5-a]pyrimidin-6-yl)methanone]", "IC50": 200},
      {"smiles": "COC[C@@H]1CCCN1C(=O)C1C(C)=Nc2ccnn2C1c1ccc(Cl)c(Cl)c1", "note": "(stereo partly drawn) [(7-(3,4-dichlorophenyl)-5-methyl-4,7-dihydropyrazolo[1,5-a]pyrimidin-6-yl)((S)-2-(methoxymethyl)pyrrolidin-1-yl)methanone]", "IC50": 200},
      {"smiles": "CC1=Nc2ccnn2C(c2ccc(Cl)c(Cl)c2)C1C(=O)N1CCCCCC1", "note": "(stereo unspecified) [azepan-1-yl(7-(3,4-dichlorophenyl)-5-methyl-4,7-dihydropyrazolo[1,5-a]pyrimidin-6-yl)methanone]", "IC50": 190},
      {"smiles": "CC1=Nc2ccnn2C(c2cccc(Cl)c2Cl)C1C(=O)N1CCN(c2ccc(F)cc2)CC1", "note": "(stereo unspecified) [(7-(2,3-dichlorophenyl)-5-methyl-4,7-dihydropyrazolo[1,5-a]pyrimidin-6-yl)(4-(4-fluorophenyl)piperazin-1-yl)methanone]", "IC50": 160},
      {"smiles": "CCN(CC)C(=O)C1C(C)=Nc2ccnn2C1c1ccc(Cl)c(Cl)c1", "note": "(stereo unspecified) [7-(3,4-dichlorophenyl)-N,N-diethyl-5-methyl-4,7-dihydropyrazolo[1,5-a]pyrimidine-6-carboxamide]", "IC50": 440},
      {"smiles": "CC1=Nc2ccnn2C(c2ccc(Cl)c(Cl)c2)C1C(=O)NCc1ccccc1", "note": "(stereo unspecified) [N-benzyl-7-(3,4-dichlorophenyl)-5-methyl-4,7-dihydropyrazolo[1,5-a]pyrimidine-6-carboxamide]", "IC50": 160},
      {"smiles": "CCCCNC(=O)C1C(C)=Nc2ccnn2C1c1ccc(Cl)c(Cl)c1", "note": "(stereo unspecified) [N-butyl-7-(3,4-dichlorophenyl)-5-methyl-4,7-dihydropyrazolo[1,5-a]pyrimidine-6-carboxamide]", "IC50": 440},
      {"smiles": "CC1=Nc2ccnn2C(c2cccc(Cl)c2)C1C(=O)N1CCN(c2ccc(F)cc2)CC1", "note": "(stereo unspecified) [(7-(3-chlorophenyl)-5-methyl-4,7-dihydropyrazolo[1,5-a]pyrimidin-6-yl)(4-(4-fluorophenyl)piperazin-1-yl)methanone]", "IC50": 190},
      {"smiles": "CC1=Nc2ccnn2[C@H](c2cccc(Cl)c2Cl)C1C(=O)N1CCN(c2ccc(F)cc2)CC1", "note": "(stereo partly drawn) [(S)-(7-(2,3-dichlorophenyl)-5-methyl-4,7-dihydropyrazolo[1,5-a]pyrimidin-6-yl)(4-(4-fluorophenyl)piperazin-1-yl)methanone]", "IC50": 160},
      {"smiles": "CC1=Nc2ccnn2C(c2ccc(Cl)cc2)C1C(=O)N1CCN(c2ccc(F)cc2)CC1", "note": "(stereo unspecified) [(7-(4-chlorophenyl)-5-methyl-4,7-dihydropyrazolo[1,5-a]pyrimidin-6-yl)(4-(4-fluorophenyl)piperazin-1-yl)methanone]", "IC50": 440}
    ]}
  ]
}
